Measured values reported in PubChem BioAssay AID1963829 (Molecular Pharmacology Branch, DTP, NCI, 2024).

System: 935938-334-R-J1-PDC complex spheroid viability
Assay: Anticancer human tumor 935938-334-R-J1-PDC patient-derived small intestine adenocarcinoma cell line growth inhibition [POLQ]
Details: for IC50: curve of first compound; for viability, T/C: stronger effect = lower value
Outline: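 Three-cell-type spheroids modelling solid tumor plus stroma served as the readout system; POL inhibitors were tested individually and in combination, concentration ranges set by clinical Cmax where known.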

[1] = second compound 0.0316 µM, first compound 0.0316 µM
[2] = second compound 0.0316 µM, first compound 0.1 µM
[3] = second compound 0.0316 µM, first compound 0.316 µM
[4] = second compound 0.0316 µM, first compound 1 µM
[5] = second compound 0.0316 µM, first compound 3.16 µM
[6] = second compound 0.0316 µM, first compound 10 µM
[7] = second compound 0.1 µM, first compound 0.0316 µM
[8] = second compound 0.1 µM, first compound 0.1 µM
[9] = second compound 0.1 µM, first compound 0.316 µM
[10] = second compound 0.1 µM, first compound 1 µM
[11] = second compound 0.1 µM, first compound 3.16 µM
[12] = second compound 0.1 µM, first compound 10 µM
[13] = second compound 0.316 µM, first compound 0.0316 µM
[14] = second compound 0.316 µM, first compound 0.1 µM
[15] = second compound 0.316 µM, first compound 0.316 µM
[16] = second compound 0.316 µM, first compound 1 µM
[17] = second compound 0.316 µM, first compound 3.16 µM
[18] = second compound 0.316 µM, first compound 10 µM
[19] = second compound 1 µM, first compound 0.0316 µM
[20] = second compound 1 µM, first compound 0.1 µM
[21] = second compound 1 µM, first compound 0.316 µM
[22] = second compound 1 µM, first compound 1 µM
[23] = second compound 1 µM, first compound 3.16 µM
[24] = second compound 1 µM, first compound 10 µM
[25] = second compound 3.16 µM, first compound 0.0316 µM
[26] = second compound 3.16 µM, first compound 0.1 µM
[27] = second compound 3.16 µM, first compound 0.316 µM
[28] = second compound 3.16 µM, first compound 1 µM
[29] = second compound 3.16 µM, first compound 3.16 µM
[30] = second compound 3.16 µM, first compound 10 µM
[31] = second compound 10 µM, first compound 0.0316 µM
[32] = second compound 10 µM, first compound 0.1 µM
[33] = second compound 10 µM, first compound 0.316 µM
[34] = second compound 10 µM, first compound 1 µM
[35] = second compound 10 µM, first compound 3.16 µM
[36] = second compound 10 µM, first compound 10 µM
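Further: spheroids exposed to drugs for seven days before viability read.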
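Wherever viability, T/C is given: 100% = DMSO vehicle control wells.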

COc1ccc([C@@H](O)c2cc(-c3ncnc4cc(N5CCOCC5)ccc34)c(F)cc2Cl)nn1 + Nc1ccc(C#CCN(C(=O)Cc2ncc(C(F)(F)F)cc2C(F)(F)F)c2ccc(F)cc2)nn1 was tested, and the IC50 (second compound 0.0316 µM) was 6.57 µM, the IC50 (second compound 0.1 µM) was 5.84 µM and the IC50 (second compound 0.316 µM) was 5.43 µM. For the same compound, the IC50 (second compound 1 µM) was 5.24 µM, the IC50 (second compound 3.16 µM) was 3.68 µM and the IC50 (second compound 10 µM) was 2.04 µM. It also gave a viability, T/C [1] of 87.1%, a viability, T/C [2] of 81.3% and a viability, T/C [3] of 98.4%. It also gave a viability, T/C [4] of 102%, a viability, T/C [5] of 59.2% and a viability, T/C [6] of 44.7%. For the same compound, the viability, T/C [7] was 120%, the viability, T/C [8] was 98.5% and the viability, T/C [9] was 105%. For the same compound, the viability, T/C [10] was 109%, the viability, T/C [11] was 73.7% and the viability, T/C [12] was 29.4%. It also gave a viability, T/C [13] of 106%, a viability, T/C [14] of 106% and a viability, T/C [15] of 110%. It also gave a viability, T/C [16] of 84.9%, a viability, T/C [17] of 74.8% and a viability, T/C [18] of 25%. The viability, T/C [19] was 118%, the viability, T/C [20] was 96.6% and the viability, T/C [21] was 106%. The viability, T/C [22] was 82.3%, the viability, T/C [23] was 70.1% and the viability, T/C [24] was 28.5%. The viability, T/C [25] was 109%, the viability, T/C [26] was 98.9% and the viability, T/C [27] was 96.5%. The viability, T/C [28] was 80.5%, the viability, T/C [29] was 52.1% and the viability, T/C [30] was 29.6%. For the same compound, the viability, T/C [31] was 81.1%, the viability, T/C [32] was 83.6% and the viability, T/C [33] was 118%. The viability, T/C [34] was 60.5%, the viability, T/C [35] was 54% and the viability, T/C [36] was 33.1%.
For CNCc1ccc(-c2[nH]c3cc(F)cc4c3c2CCNC4=O)cc1 + Cc1cccc(N(C)C(=O)C2C(O)CCN2c2nc(C)cc(C(F)(F)F)c2C#N)c1, the IC50 (second compound 0.0316 µM) was > 10 µM, the IC50 (second compound 0.1 µM) was > 10 µM and the IC50 (second compound 0.316 µM) was > 10 µM. The IC50 (second compound 1 µM) was > 10 µM, the IC50 (second compound 3.16 µM) was > 10 µM and the IC50 (second compound 10 µM) was > 10 µM. It also gave a viability, T/C [1] of 90.2%, a viability, T/C [2] of 97.7% and a viability, T/C [3] of 101%. For the same compound, the viability, T/C [4] was 115%, the viability, T/C [5] was 108% and the viability, T/C [6] was 81.8%. The viability, T/C [7] was 107%, the viability, T/C [8] was 64.9% and the viability, T/C [9] was 78.2%. The viability, T/C [10] was 94.9%, the viability, T/C [11] was 90.6% and the viability, T/C [12] was 76.8%. For the same compound, the viability, T/C [13] was 85.5%, the viability, T/C [14] was 94.5% and the viability, T/C [15] was 97.2%. The viability, T/C [16] was 97.2%, the viability, T/C [17] was 125% and the viability, T/C [18] was 99.9%. For the same compound, the viability, T/C [19] was 106%, the viability, T/C [20] was 78.6% and the viability, T/C [21] was 88.5%. It also gave a viability, T/C [22] of 100%, a viability, T/C [23] of 93.2% and a viability, T/C [24] of 112%. For the same compound, the viability, T/C [25] was 88.9%, the viability, T/C [26] was 118% and the viability, T/C [27] was 88.1%. The viability, T/C [28] was 102%, the viability, T/C [29] was 133% and the viability, T/C [30] was 99.5%. For the same compound, the viability, T/C [31] was 122%, the viability, T/C [32] was 80.7% and the viability, T/C [33] was 96.2%. It also gave a viability, T/C [34] of 83.2%, a viability, T/C [35] of 121% and a viability, T/C [36] of 102%.
In the case of O=C(c1cc(Cc2n[nH]c(=O)c3ccccc23)ccc1F)N1CCN(C(=O)C2CC2)CC1 + Nc1ccc(C#CCN(C(=O)Cc2ncc(C(F)(F)F)cc2C(F)(F)F)c2ccc(F)cc2)nn1, the IC50 (second compound 0.0316 µM) is reported as > 10 µM, the IC50 (second compound 0.1 µM) is reported as > 10 µM and the IC50 (second compound 0.316 µM) is reported as > 10 µM. For the same compound, the IC50 (second compound 1 µM) was > 10 µM, the IC50 (second compound 3.16 µM) was > 10 µM and the IC50 (second compound 10 µM) was > 10 µM. For the same compound, the viability, T/C [1] was 87.6%, the viability, T/C [2] was 89.3% and the viability, T/C [3] was 108%. The viability, T/C [4] was 89.5%, the viability, T/C [5] was 75.2% and the viability, T/C [6] was 76.3%. The viability, T/C [7] was 93.7%, the viability, T/C [8] was 81% and the viability, T/C [9] was 105%. It also gave a viability, T/C [10] of 73.1%, a viability, T/C [11] of 81% and a viability, T/C [12] of 60%. For the same compound, the viability, T/C [13] was 84.4%, the viability, T/C [14] was 85% and the viability, T/C [15] was 116%. The viability, T/C [16] was 69.3%, the viability, T/C [17] was 74.3% and the viability, T/C [18] was 53.3%. It also gave a viability, T/C [19] of 99.3%, a viability, T/C [20] of 99.8% and a viability, T/C [21] of 107%. It also gave a viability, T/C [22] of 98.6%, a viability, T/C [23] of 111% and a viability, T/C [24] of 78.7%. It also gave a viability, T/C [25] of 92%, a viability, T/C [26] of 93.5% and a viability, T/C [27] of 95%. It also gave a viability, T/C [28] of 94.8%, a viability, T/C [29] of 94.9% and a viability, T/C [30] of 69.2%. It also gave a viability, T/C [31] of 84.4%, a viability, T/C [32] of 94.9% and a viability, T/C [33] of 102%. For the same compound, the viability, T/C [34] was 98.2%, the viability, T/C [35] was 81% and the viability, T/C [36] was 85.9%.
In the case of C#Cc1c(F)ccc2cc(O)cc(-c3ncc4c(N5CC6CCC(C5)N6)nc(OCC56CCCN5CC(F)C6)nc4c3F)c12 (stereo not drawn) + Nc1ccc(C#CCN(C(=O)Cc2ncc(C(F)(F)F)cc2C(F)(F)F)c2ccc(F)cc2)nn1, the IC50 (second compound 0.0316 µM) is reported as 5.75 µM, the IC50 (second compound 0.1 µM) is reported as > 10 µM and the IC50 (second compound 0.316 µM) is reported as 2.92 µM. The IC50 (second compound 1 µM) was 2.85 µM, the IC50 (second compound 3.16 µM) was > 10 µM and the IC50 (second compound 10 µM) was 2.94 µM. The viability, T/C [1] was 97.5%, the viability, T/C [2] was 104% and the viability, T/C [3] was 84.6%. It also gave a viability, T/C [4] of 74.1%, a viability, T/C [5] of 65% and a viability, T/C [6] of 38.4%. For the same compound, the viability, T/C [7] was 97.9%, the viability, T/C [8] was 84.8% and the viability, T/C [9] was 90.4%. It also gave a viability, T/C [10] of 97.4%, a viability, T/C [11] of 52.1% and a viability, T/C [12] of 53.6%. The viability, T/C [13] was 83.7%, the viability, T/C [14] was 114% and the viability, T/C [15] was 92%. The viability, T/C [16] was 68.2%, the viability, T/C [17] was 52% and the viability, T/C [18] was 42.1%. For the same compound, the viability, T/C [19] was 81.4%, the viability, T/C [20] was 111% and the viability, T/C [21] was 92.1%. The viability, T/C [22] was 73.4%, the viability, T/C [23] was 48.6% and the viability, T/C [24] was 41.8%. The viability, T/C [25] was 105%, the viability, T/C [26] was 99.6% and the viability, T/C [27] was 66.9%. It also gave a viability, T/C [28] of 66.4%, a viability, T/C [29] of 61.1% and a viability, T/C [30] of 67.2%. It also gave a viability, T/C [31] of 108%, a viability, T/C [32] of 96.7% and a viability, T/C [33] of 76.2%. For the same compound, the viability, T/C [34] was 63.6%, the viability, T/C [35] was 43% and the viability, T/C [36] was 48.9%.
